Test results taken from patent US12263175B2, “Optimised dosage of diaminophenothiazines in populations” (WisTa Laboratories Ltd., priority 2018, dated 2025).

Test: Treatment-emergent adverse events, three Phase 3 double-blind studies, LMTM pooled safety population
Format: in vivo, human
From the text: Three Phase 3, double-blind, controlled studies of LMTM have been completed (one each in subjects with mild and mild to moderate AD and one in subjects with bvFTD). Results of the AD studies have been published (Gauthier et al., 2016; Wilcock et al., 2018).
In these three studies, 1897 subjects received at least one dose of LMTM (Safety Population [Five additional subjects with AD, participating at one site in Study TRx-237-005, received a dose of study drug but were excluded from all analyses due to GCP violations], 1679 subjects with AD and 218 subjects with bvFTD). Of these, 860 subjects received the control (LMTM 8 mg/day, 750 with AD and 110 with bvFTD) and 1037 subjects received at least one dose of LMTM in the higher doses of 150 to 250 mg/day (929 with AD and 108 with bvFTD).
The incidence of the most common TEAEs are summarised by dose in the following Table EX1. This includes TEAEs that occurred at an incidence of ≥2.0% either in subjects randomised to LMTM 8 mg/day or higher doses (150 to 250 mg/day). The subset of TEAEs that were severe in intensity are also included.
The TEAEs are further analysed by using groupings of related MedDRA (Medical Dictionary for Regulatory Activities) preferred terms to better estimate the incidence of potentially treatment related adverse events. The incidence of all groupings for subjects categorised by dose (8 mg/day versus higher doses of 150 to 250 mg/day) is shown in the following Table EX2: […]

[1] = LMTM 8 mg/day (N = 860), Severe Intensity
[2] = subjects treated with LMTM 8 mg/day

SMILES: CN(C)c1ccc2c(c1)Sc1cc(N(C)C)ccc1N2 [LMTM, leuco-methylthioninium bis(hydromethanesulfonate)]
- Grouped TEAE incidence: Behavioral Symptoms (LMTM 8 mg/day (N = 860)): 114 (13.3%) n (%)
- Grouped TEAE incidence: Falls and Related Terms (LMTM 8 mg/day (N = 860)): 188 (21.9%) n (%)
- Grouped TEAE incidence: Hepatic Function Impairment (LMTM 8 mg/day (N = 860)): 13 (1.5%) n (%)
- Grouped TEAE incidence: Hypersensitivity (LMTM 8 mg/day (N = 860)): 42 (4.9%) n (%)
- Grouped TEAE incidence: Ischaemic Events, Inclusive of Myocardial Infarction (LMTM 8 mg/day (N = 860)): 20 (2.3%) n (%)
- Grouped TEAE incidence: Psychotic Symptoms (LMTM 8 mg/day (N = 860)): 28 (3.3%) n (%)
- Grouped TEAE incidence: Renal Function Impairment (LMTM 8 mg/day (N = 860)): 29 (3.4%) n (%)
- Grouped TEAE incidence: Renal and Urinary Disorders (Including Infections) (LMTM 8 mg/day (N = 860)): 135 (15.7%) n (%)
- Grouped TEAE incidence: Sleep Disorders (LMTM 8 mg/day (N = 860)): 41 (4.8%) n (%)
- Grouped TEAE incidence: Targeted Gastrointestinal Events (LMTM 8 mg/day (N = 860)): 183 (21.3%) n (%)
- No. (%) of Subjects Reporting at Least One TEAE (LMTM 8 mg/day (N = 860), All): 720 (83.7%) n (%)
- TEAE incidence: Abdominal pain (LMTM 8 mg/day (N = 860), All): 16 (1.9%) n (%)
- TEAE incidence: Abdominal pain upper (LMTM 8 mg/day (N = 860), All): 10 (1.2%) n (%)
- TEAE incidence: Agitation (LMTM 8 mg/day (N = 860), All): 46 (5.3%) n (%)
- TEAE incidence: Anaemia (LMTM 8 mg/day (N = 860), All): 19 (2.2%) n (%)
- TEAE incidence: Anxiety (LMTM 8 mg/day (N = 860), All): 52 (6.0%) n (%)
- TEAE incidence: Arthralgia (LMTM 8 mg/day (N = 860), All): 28 (3.3%) n (%)
- TEAE incidence: Atrial fibrillation (LMTM 8 mg/day (N = 860), All): 17 (2.0%) n (%)
- TEAE incidence: Back pain (LMTM 8 mg/day (N = 860), All): 31 (3.6%) n (%)
- TEAE incidence: Blood creatine phosphokinase increased (LMTM 8 mg/day (N = 860), All): 18 (2.1%) n (%)
- TEAE incidence: Blood folate decreased (LMTM 8 mg/day (N = 860), All): 45 (5.2%) n (%)
- TEAE incidence: Bronchitis (LMTM 8 mg/day (N = 860), All): 27 (3.1%) n (%)
- TEAE incidence: Cerebral microhaemorrhage (LMTM 8 mg/day (N = 860), All): 24 (2.8%) n (%)
- TEAE incidence: Confusional state (LMTM 8 mg/day (N = 860), All): 22 (2.6%) n (%)
- TEAE incidence: Constipation (LMTM 8 mg/day (N = 860), All): 23 (2.7%) n (%)
- TEAE incidence: Contusion (LMTM 8 mg/day (N = 860), All): 24 (2.8%) n (%)
- TEAE incidence: Cough (LMTM 8 mg/day (N = 860), All): 37 (4.3%) n (%)
- TEAE incidence: Decreased appetite (LMTM 8 mg/day (N = 860), All): 13 (1.5%) n (%)
- TEAE incidence: Dehydration (LMTM 8 mg/day (N = 860), All): 17 (2.0%) n (%)
- TEAE incidence: Depression (LMTM 8 mg/day (N = 860), All): 41 (4.8%) n (%)
- TEAE incidence: Diarrhoea (LMTM 8 mg/day (N = 860), All): 109 (12.7%) n (%)
- TEAE incidence: Dizziness (LMTM 8 mg/day (N = 860), All): 49 (5.7%) n (%)
- TEAE incidence: Dysuria (LMTM 8 mg/day (N = 860), All): 6 (0.7%) n (%)
- TEAE incidence: Fall (LMTM 8 mg/day (N = 860), All): 90 (10.5%) n (%)
- TEAE incidence: Fatigue (LMTM 8 mg/day (N = 860), All): 26 (3.0%) n (%)
- TEAE incidence: Folate deficiency (LMTM 8 mg/day (N = 860), All): 17 (2.0%) n (%)
- TEAE incidence: Haemoglobin decreased (LMTM 8 mg/day (N = 860), All): 6 (0.7%) n (%)
- TEAE incidence: Hallucination (LMTM 8 mg/day (N = 860), All): 13 (1.5%) n (%)
- TEAE incidence: Headache (LMTM 8 mg/day (N = 860), All): 55 (6.4%) n (%)
- TEAE incidence: Hypertension (LMTM 8 mg/day (N = 860), All): 20 (2.3%) n (%)
- TEAE incidence: Insomnia (LMTM 8 mg/day (N = 860), All): 29 (3.4%) n (%)
- TEAE incidence: Laceration (LMTM 8 mg/day (N = 860), All): 17 (2.0%) n (%)
- TEAE incidence: Micturition urgency (LMTM 8 mg/day (N = 860), All): 11 (1.3%) n (%)
- TEAE incidence: Nasopharyngitis (LMTM 8 mg/day (N = 860), All): 40 (4.7%) n (%)
- TEAE incidence: Nausea (LMTM 8 mg/day (N = 860), All): 39 (4.5%) n (%)
- TEAE incidence: Oedema peripheral (LMTM 8 mg/day (N = 860), All): 19 (2.2%) n (%)
- TEAE incidence: Pain in extremity (LMTM 8 mg/day (N = 860), All): 19 (2.2%) n (%)
- TEAE incidence: Pollakiuria (LMTM 8 mg/day (N = 860), All): 19 (2.2%) n (%)
- TEAE incidence: Rash (LMTM 8 mg/day (N = 860), All): 21 (2.4%) n (%)
- TEAE incidence: Suicidal ideation (LMTM 8 mg/day (N = 860), All): 27 (3.1%) n (%)
- TEAE incidence: Syncope (LMTM 8 mg/day (N = 860), All): 26 (3.0%) n (%)
- TEAE incidence: Tremor (LMTM 8 mg/day (N = 860), All): 20 (2.3%) n (%)
- TEAE incidence: Upper respiratory tract infection (LMTM 8 mg/day (N = 860), All): 35 (4.1%) n (%)
- TEAE incidence: Urinary incontinence (LMTM 8 mg/day (N = 860), All): 34 (4.0%) n (%)
- TEAE incidence: Urinary tract infection (LMTM 8 mg/day (N = 860), All): 76 (8.8%) n (%)
- TEAE incidence: Vitamin B12 decreased (LMTM 8 mg/day (N = 860), All): 23 (2.7%) n (%)
- TEAE incidence: Vomiting (LMTM 8 mg/day (N = 860), All): 20 (2.3%) n (%)
- TEAE incidence: Weight decreased (LMTM 8 mg/day (N = 860), All): 18 (2.1%) n (%)
- No. (%) of Subjects Reporting at Least One TEAE [1]: 86 (10.0%) n (%)
- TEAE incidence: Abdominal pain [1]: 1 (0.1%) n (%)
- TEAE incidence: Abdominal pain upper [1]: 1 (0.1%) n (%)
- TEAE incidence: Agitation [1]: 1 (0.1%) n (%)
- TEAE incidence: Anaemia [1]: 1 (0.1%) n (%)
- TEAE incidence: Anxiety [1]: 0 n (%)
- TEAE incidence: Arthralgia [1]: 0 n (%)
- TEAE incidence: Atrial fibrillation [1]: 3 (0.3%) n (%)
- TEAE incidence: Back pain [1]: 1 (0.1%) n (%)
- TEAE incidence: Blood creatine phosphokinase increased [1]: 0 n (%)
- TEAE incidence: Blood folate decreased [1]: 0 n (%)
- TEAE incidence: Bronchitis [1]: 0 n (%)
- TEAE incidence: Cerebral microhaemorrhage [1]: 0 n (%)
- TEAE incidence: Confusional state [1]: 2 (0.2%) n (%)
- TEAE incidence: Constipation [1]: 2 (0.2%) n (%)
- TEAE incidence: Contusion [1]: 0 n (%)
- TEAE incidence: Cough [1]: 0 n (%)
- TEAE incidence: Decreased appetite [1]: 0 n (%)
- TEAE incidence: Dehydration [1]: 4 (0.5%) n (%)
- TEAE incidence: Depression [1]: 0 n (%)
- TEAE incidence: Diarrhoea [1]: 5 (0.6%) n (%)
- TEAE incidence: Dizziness [1]: 3 (0.3%) n (%)
- TEAE incidence: Dysuria [1]: 0 n (%)
- TEAE incidence: Fall [1]: 4 (0.5%) n (%)
- TEAE incidence: Fatigue [1]: 0 n (%)
- TEAE incidence: Folate deficiency [1]: 0 n (%)
- TEAE incidence: Haemoglobin decreased [1]: 0 n (%)
- TEAE incidence: Hallucination [1]: 0 n (%)
- TEAE incidence: Headache [1]: 1 (0.1%) n (%)
- TEAE incidence: Hypertension [1]: 0 n (%)
- TEAE incidence: Insomnia [1]: 0 n (%)
- TEAE incidence: Laceration [1]: 0 n (%)
- TEAE incidence: Micturition urgency [1]: 0 n (%)
- TEAE incidence: Nasopharyngitis [1]: 0 n (%)
- TEAE incidence: Nausea [1]: 1 (0.1%) n (%)
- TEAE incidence: Oedema peripheral [1]: 0 n (%)
- TEAE incidence: Pain in extremity [1]: 1 (0.1%) n (%)
- TEAE incidence: Pollakiuria [1]: 0 n (%)
- TEAE incidence: Rash [1]: 0 n (%)
- TEAE incidence: Suicidal ideation [1]: 2 (0.2%) n (%)
- TEAE incidence: Syncope [1]: 1 (0.1%) n (%)
- TEAE incidence: Tremor [1]: 0 n (%)
- TEAE incidence: Upper respiratory tract infection [1]: 0 n (%)
- TEAE incidence: Urinary incontinence [1]: 0 n (%)
- TEAE incidence: Urinary tract infection [1]: 1 (0.1%) n (%)
- TEAE incidence: Vitamin B12 decreased [1]: 0 n (%)
- TEAE incidence: Vomiting [1]: 0 n (%)
- TEAE incidence: Weight decreased [1]: 0 n (%)
- Grouped TEAE incidence: Falls and Related Terms [2]: 22%
- Grouped TEAE incidence: GI events [2]: 21%
- Grouped TEAE incidence: Renal and Urinary Disorders (Including Infections) [2]: 16%
- Grouped TEAE incidence: behavioural symptoms [2]: 13%
- Grouped TEAE incidence: terms indicative of anaemia [2]: 13%
